Test results reported in patent EP0076430A1, “Compositions having antimicrobial activity” (MEDEA RESEARCH S.r.l., priority 1981, dated 1983).
In brackets after ≈: the same amount, converted by molar mass.

How the values were obtained:
Bacillaceae = test: Minimum inhibitory concentration (MIC), broth dilution; type: cell-based; conditions: 24 h; strain 1722
Method: (§1) Different bacterial species isolated from patients are employed.
(§2) Compounds AB5 and AB6 are dissolved in ethanol (ethyl alcohol 95°, C. Erba) and all the subsequent dilutions performed in distilled water. The chlorhexidine is diluted from the commercial product already dissolved in distilled water.
(§3) The broth dilution is employed to assess MIC values for all strains. Sterile microtiter plates with U bottom with 96 wells are employed. 0.1 Ml of liquid medium (tryptose Roche broth) are put in each well, the plates are kept at -20° and, before use, at room temperature.
(§4) The disinfectant agent is put in the wells of the row 2 at a concentration of 4000 mcg/ml (real 2000 mcg/ml) and then with a 100 µl micro- pipette dilutions are performed from row 2 to row 11.
(§5) The row 1 is the control of the medium and the row 12 is the control for the fertility of the medium itself.
(§6) After having performed the dilutions, 0.01 ml of a 24 hrs bacterial broth culture (previously diluted at 10^-4 for Gram-negative strains and 10-2 for Gram-positive ones) are placed in all wells, from the rows 2 to 12. After the inoculation, the plate is hermetical ly sealed with adhesive transparent band and an hole is done with a needle. The plates are kept at 35° for 24 hours and a macroscopic reading is carried out; in case of non uniform reading, taking place only for chlorhexidine, the cultures from the wells are plated on agar-heart-brain medium (Sclavo) through Dinatech apparatus (head "Inoculum 96") and the reading of the growth is carried out in the following 24 hours.

E.coli = test: as above; type: cell-based; conditions: Escherichia coli, 24 h
Method: as §1, §2, §3, §4, §5, §6

Enterobacter = test: as above; type: cell-based; conditions: 24 h, strain 2643
Method: as §1, §2, §3, §4, §5, §6

Indole-positive Proteus [1] = test: as above; type: cell-based; conditions: 24 h
Method: as §1, §2, §3, §4, §5, §6

Pseudomonas aeruginosa [2] = test: as above; type: cell-based; conditions: 24 h
Method: as §1, §2, §3, §4, §5, §6

Salmonella sp. [3] = test: as above; type: cell-based; conditions: 24 h, strain 2482
Method: as §1, §2, §3, §4, §5, §6

Serratia marcescens [4] = test: as above; type: cell-based; conditions: 24 h, strain 1814
Method: as §1, §2, §3, §4, §5, §6

Staph. aureus [5] = test: as above; type: cell-based; conditions: Staphylococcus aureus, 24 h; strain 2672
Method: as §1, §2, §3, §4, §5, §6

E. coli = test: Bactericide activity at different contact times; type: cell-based; design: key to Bactericide action (growth / no growth): + = growth; - = no growth; conditions: 100 p.p.m.
Method: as §1, §2
(§7) It is assessed through Dinatech apparatus with "Inoculum 96" head.
(§8) Chemical compounds at established concentra tions are placed in amount of 1 ml in the con tainers, the bacterial inoculum is then added in amount of 0.1 ml (24 hrs culture) and at pre-established times (3,5,10,30,60 and 120 mi nutes), through the head, the mixture compound/ disinfectant agent is transferred in solid medium (agar-heart-brain medium). After incubation at 35°C for 24 hours, the reading is carried out. The tests are repeated in presence of human serum at the concentration of 10%.

Indole-positive Proteus [6] = test: Bactericide activity at different contact times; type: cell-based; design: key to Bactericide action (growth / no growth): + = growth; - = no growth; conditions: 100 p.p.m.
Method: as §1, §2, §7, §8

Serratia marcescens [7] = test: Bactericide activity at different contact times; type: cell-based; design: key to Bactericide action (growth / no growth): + = growth; - = no growth; conditions: 100 p.p.m.
Method: as §1, §2, §7, §8

Pseudomonas aeruginosa [8] = test: Bactericide activity at different contact times; type: cell-based; design: key to Bactericide action (growth / no growth) / Bactericide activity (growth / no growth), serum interference test: + = growth; - = no growth
Method: as §1, §2, §7, §8

B. subtilis = test: Bactericide activity at different contact times; type: cell-based; design: key: + = growth; - = no growth; conditions: 100 p.p.m.
Method: as §1, §2, §7, §8

Salmonella sp. [9] = test: Bactericide activity at different contact times; type: cell-based; design: key: + = growth; - = no growth; conditions: 100 p.p.m.
Method: as §1, §2, §7, §8

Staph. aureus [10] = test: Bactericide activity at different contact times; type: cell-based; design: key: + = growth; - = no growth; conditions: 100 p.p.m.
Method: as §1, §2, §7, §8

[11] = Toxicity, LD50 by intraperitoneal route; conditions: mouse, in vivo, ip, mice

NC(=NI)c1ccccc1 [AB6]
MIC (Bacillaceae): 31.2 µg/mL (≈ 0.127 mM) | MIC (E.coli; strain 2094): > 1000 µg/mL | MIC (E.coli; strain 2096): > 1000 µg/mL | MIC (E.coli; strain 2117): > 1000 µg/mL | MIC (E.coli; strain 2456): > 1000 µg/mL | MIC (E.coli; strain 2568): 2000 µg/mL (≈ 8.13 mM) | MIC (Enterobacter): 1000 µg/mL (≈ 4.06 mM) | MIC (Indole-positive Proteus [1]; strain 2075): > 1000 µg/mL | MIC (Indole-positive Proteus [1]; strain 2083): > 1000 µg/mL | MIC (Indole-positive Proteus [1]; strain 2105): > 1000 µg/mL | MIC (Indole-positive Proteus [1]; strain 2410): > 2000 µg/mL | MIC (Indole-positive Proteus [1]; strain 2447): > 2000 µg/mL | MIC (Indole-positive Proteus [1]; strain 2674): 1000 µg/mL (≈ 4.06 mM) | MIC (Pseudomonas aeruginosa [2]; strain 2084): > 1000 µg/mL | MIC (Pseudomonas aeruginosa [2]; strain 2458): > 1000 µg/mL | MIC (Pseudomonas aeruginosa [2]; strain 2488): 1000 µg/mL (≈ 4.06 mM) | MIC (Pseudomonas aeruginosa [2]; strain 2508): 1000 µg/mL (≈ 4.06 mM) | MIC (Pseudomonas aeruginosa [2]; strain 2509): 1000 µg/mL (≈ 4.06 mM) | MIC (Pseudomonas aeruginosa [2]; strain 2670): 1000 µg/mL (≈ 4.06 mM) | MIC (Salmonella sp. [3]): > 1000 µg/mL | MIC (Serratia marcescens [4]): 125 µg/mL (≈ 0.508 mM) | MIC (Staph. aureus [5]): 1000 µg/mL (≈ 4.06 mM) | Bactericide action (growth / no growth) (E. coli; contact time 3 min): + | Bactericide action (growth / no growth) (E. coli; contact time 5 min): + | Bactericide action (growth / no growth) (E. coli; contact time 10 min): - | Bactericide action (growth / no growth) (E. coli; contact time 30 min): - | Bactericide action (growth / no growth) (E. coli; contact time 60 min): - | Bactericide action (growth / no growth) (E. coli; contact time 120 min): - | contact time for total bactericide activity (Indole-positive Proteus [6]): ≤ 3 min | Bactericide action (growth / no growth) (Indole-positive Proteus [6]; contact time 3 min): - | Bactericide action (growth / no growth) (Indole-positive Proteus [6]; contact time 5 min): - | Bactericide action (growth / no growth) (Indole-positive Proteus [6]; contact time 10 min): - | Bactericide action (growth / no growth) (Indole-positive Proteus [6]; contact time 30 min): - | Bactericide action (growth / no growth) (Indole-positive Proteus [6]; contact time 60 min): - | Bactericide action (growth / no growth) (Indole-positive Proteus [6]; contact time 120 min): - | longest time in which it is active (Serratia marcescens [7]): 30 min | Bactericide action (growth / no growth) (Serratia marcescens [7]; contact time 3 min): + | Bactericide action (growth / no growth) (Serratia marcescens [7]; contact time 5 min): + | Bactericide action (growth / no growth) (Serratia marcescens [7]; contact time 10 min): + | Bactericide action (growth / no growth) (Serratia marcescens [7]; contact time 30 min): - | Bactericide action (growth / no growth) (Serratia marcescens [7]; contact time 60 min): - | Bactericide action (growth / no growth) (Serratia marcescens [7]; contact time 120 min): - | contact time for total bactericide activity (Pseudomonas aeruginosa [8]; 100 p.p.m.): ≤ 3 min | Bactericide action (growth / no growth) (Pseudomonas aeruginosa [8]; contact time 3 min, 100 p.p.m.): - | Bactericide activity (growth / no growth), serum interference test (Pseudomonas aeruginosa [8]; contact time 3 min, with human serum (10%)): + | Bactericide activity (growth / no growth), serum interference test (Pseudomonas aeruginosa [8]; contact time 3 min, without serum): - | Bactericide action (growth / no growth) (Pseudomonas aeruginosa [8]; contact time 5 min, 100 p.p.m.): - | Bactericide activity (growth / no growth), serum interference test (Pseudomonas aeruginosa [8]; contact time 5 min, with human serum (10%)): + | Bactericide activity (growth / no growth), serum interference test (Pseudomonas aeruginosa [8]; contact time 5 min, without serum): - | Bactericide action (growth / no growth) (Pseudomonas aeruginosa [8]; contact time 10 min, 100 p.p.m.): - | Bactericide activity (growth / no growth), serum interference test (Pseudomonas aeruginosa [8]; contact time 10 min, with human serum (10%)): + | Bactericide activity (growth / no growth), serum interference test (Pseudomonas aeruginosa [8]; contact time 10 min, without serum): - | Bactericide action (growth / no growth) (Pseudomonas aeruginosa [8]; contact time 30 min, 100 p.p.m.): - | Bactericide activity (growth / no growth), serum interference test (Pseudomonas aeruginosa [8]; contact time 30 min, with human serum (10%)): + | Bactericide activity (growth / no growth), serum interference test (Pseudomonas aeruginosa [8]; contact time 30 min, without serum): - | Bactericide action (growth / no growth) (Pseudomonas aeruginosa [8]; contact time 60 min, 100 p.p.m.): - | Bactericide activity (growth / no growth), serum interference test (Pseudomonas aeruginosa [8]; contact time 60 min, with human serum (10%)): - | Bactericide activity (growth / no growth), serum interference test (Pseudomonas aeruginosa [8]; contact time 60 min, without serum): - | Bactericide action (growth / no growth) (Pseudomonas aeruginosa [8]; contact time 120 min, 100 p.p.m.): - | Bactericide activity (growth / no growth), serum interference test (Pseudomonas aeruginosa [8]; contact time 120 min, with human serum (10%)): - | Bactericide activity (growth / no growth), serum interference test (Pseudomonas aeruginosa [8]; contact time 120 min, without serum): - | Bactericide action (growth / no growth) (B. subtilis; contact time 3 min): - | Bactericide action (growth / no growth) (B. subtilis; contact time 5 min): - | Bactericide action (growth / no growth) (B. subtilis; contact time 10 min): - | Bactericide action (growth / no growth) (B. subtilis; contact time 30 min): - | Bactericide action (growth / no growth) (B. subtilis; contact time 60 min): - | Bactericide action (growth / no growth) (B. subtilis; contact time 120 min): - | Bactericide action (growth / no growth) (Salmonella sp. [9]; contact time 3 min): - | Bactericide action (growth / no growth) (Salmonella sp. [9]; contact time 5 min): - | Bactericide action (growth / no growth) (Salmonella sp. [9]; contact time 10 min): - | Bactericide action (growth / no growth) (Salmonella sp. [9]; contact time 30 min): - | Bactericide action (growth / no growth) (Salmonella sp. [9]; contact time 60 min): - | Bactericide action (growth / no growth) (Salmonella sp. [9]; contact time 120 min): - | Bactericide action (growth / no growth) (Staph. aureus [10]; contact time 3 min): - | Bactericide action (growth / no growth) (Staph. aureus [10]; contact time 5 min): - | Bactericide action (growth / no growth) (Staph. aureus [10]; contact time 10 min): - | Bactericide action (growth / no growth) (Staph. aureus [10]; contact time 30 min): - | Bactericide action (growth / no growth) (Staph. aureus [10]; contact time 60 min): - | Bactericide action (growth / no growth) (Staph. aureus [10]; contact time 120 min): - | LD50 [11]: 85 mg/kg
